The record followed here is PubChem BioAssay (NCI).

Test systems include IGROV1 ovarian; U251 CNS; UO-31 renal; MOLT-4 leukemia; UACC-62 melanoma; HL-60(TB) leukemia; OVCAR-8 ovarian; PC-3 prostate; NCI/ADR-RES ovarian.
Holding throughout (experiment): NCI tumour cell line growth inhibition, 48 h

Molecules are shown by their SMILES.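 All cell lines were grown in 96-well plates and treated with compound for 48 hours. GI50 marks 50% less growth. TGI is the concentration that stops growth completely.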 Bounds are passed on as bounds.

As for `CC[N+](C)(CC)CC(C)(C)C(=O)/C=C/c1ccc(/C=C/C(=O)C(C)(C)C[N+](C)(CC)CC)cc1`, the TGI in the experiment on IGROV1 ovarian, in the experiment on U251 CNS, in the experiment on UO-31 renal, with MOLT-4 leukemia, with UACC-62 melanoma and in the experiment with HL-60(TB) leukemia was greater than 100 µM each time. In addition, the TGI with OVCAR-8 ovarian was greater than 100 µM.

As for `CN(C)CCNC(=O)c1cccc2ccc(-c3ccc(-c4ccccc4)cc3)nc12`, the TGI in the experiment with IGROV1 ovarian was greater than 44.9 µM; with U251 CNS, 4.65 µM; in the experiment on UO-31 renal, 24.7 µM; in the experiment with MOLT-4 leukemia it was 5.16 µM; in the experiment on UACC-62 melanoma, 32.2 µM; in the experiment on HL-60(TB) leukemia, 4.23 µM. In the experiment with OVCAR-8 ovarian, this compound returned a TGI of 7.66 µM.

`O=C1C2C3C=C4c5ccccc5N(c5ccccc5)C4(C2C(=O)N1c1ccc(Br)cc1)[C@H]1C(=O)N(c2ccc(Br)cc2)C(=O)[C@@H]31` (stereo partly specified): the TGI in the experiment with IGROV1 ovarian, with U251 CNS, with UO-31 renal, with MOLT-4 leukemia, in the experiment with UACC-62 melanoma and with HL-60(TB) leukemia was greater than 100 µM throughout. The compound also registered a TGI in the experiment on OVCAR-8 ovarian greater than 100 µM.

In the case of `O=C(C/C(CCC(=O)N(Cc1ccccc1)Cc1ccccc1)=N/Nc1ccc([N+](=O)[O-])cc1[N+](=O)[O-])c1ccccc1`, the TGI with IGROV1 ovarian was greater than 100 µM; in the experiment with U251 CNS it was greater than 100 µM; with UO-31 renal it was greater than 100 µM; in the experiment on MOLT-4 leukemia it was 73.9 µM; in the experiment with UACC-62 melanoma, greater than 100 µM; in the experiment on HL-60(TB) leukemia, greater than 100 µM. The TGI with OVCAR-8 ovarian was greater than 100 µM.

`Cc1nc2sccn2c1C(=O)NC(=O)Nc1ccc(Cl)cc1`: the TGI in the experiment on IGROV1 ovarian, in the experiment with U251 CNS, in the experiment on UO-31 renal, with MOLT-4 leukemia, with UACC-62 melanoma and in the experiment on HL-60(TB) leukemia was greater than 100 µM in each case. Besides, in the experiment on OVCAR-8 ovarian, the TGI is greater than 100 µM.

In the case of `Cn1c(=O)c2[nH]cnc2n(CC(N)=O)c1=O`, the TGI with IGROV1 ovarian, in the experiment on U251 CNS, with UO-31 renal, in the experiment with MOLT-4 leukemia, in the experiment with UACC-62 melanoma and in the experiment with OVCAR-8 ovarian was greater than 100 µM in each case.

Take `COC(=O)/C=c1\s/c(=C\C(=O)OC)c2ccccc12`: the TGI in the experiment on IGROV1 ovarian, with U251 CNS, in the experiment on UO-31 renal, with MOLT-4 leukemia, in the experiment on UACC-62 melanoma and in the experiment with HL-60(TB) leukemia was greater than 100 µM each time. In addition, in the experiment with OVCAR-8 ovarian, the TGI was greater than 100 µM.

For the compound `COc1cc2c(cc1C1=NC(C)(C)CO1)OCO2`, the TGI with IGROV1 ovarian, in the experiment with U251 CNS, in the experiment with UO-31 renal, in the experiment on MOLT-4 leukemia, in the experiment with UACC-62 melanoma and with HL-60(TB) leukemia was greater than 100 µM in each case. Besides, in the experiment on OVCAR-8 ovarian, the TGI is greater than 100 µM.

`N#Cc1ccc2cc3c(cc2c1)OCO3`: the TGI was greater than 100 µM with IGROV1 ovarian; greater than 100 µM in the experiment on U251 CNS; 89.3 µM with UO-31 renal; greater than 100 µM in the experiment on MOLT-4 leukemia; greater than 100 µM in the experiment with UACC-62 melanoma; greater than 100 µM in the experiment with HL-60(TB) leukemia.

Regarding `COC1C2c3cc4c(cc3CC(C#N)(c3ccccc32)N1C(=O)c1ccccc1)OCO4` (stereo unspecified), the TGI in the experiment with IGROV1 ovarian, in the experiment with U251 CNS, in the experiment with UO-31 renal, with MOLT-4 leukemia, with UACC-62 melanoma and in the experiment with HL-60(TB) leukemia was greater than 100 µM each time. Further, the TGI with OVCAR-8 ovarian is greater than 100 µM.

Turning to `C/C=C/COC(=O)CO[N+](=O)[O-]`, the TGI in the experiment on IGROV1 ovarian, with U251 CNS, in the experiment with UO-31 renal, in the experiment on MOLT-4 leukemia, with HL-60(TB) leukemia and with OVCAR-8 ovarian was greater than 100 µM in each case.

With `C=C1C(=O)O[C@H]2[C@H]1CC/C(COC(=O)NCCc1c[nH]c3ccc(Cl)cc13)=C\CC[C@@]1(C)O[C@@H]21`, the GI50 in the experiment with PC-3 prostate is 1720 nM; in the experiment with NCI/ADR-RES ovarian, 2740 nM; with IGROV1 ovarian, 1550 nM; in the experiment with U251 CNS, 1800 nM; in the experiment on UO-31 renal, 1310 nM; in the experiment on MOLT-4 leukemia it was 1710 nM. In addition, the GI50 in the experiment with UACC-62 melanoma is 1610 nM; in the experiment with OVCAR-8 ovarian it was 1600 nM. In addition, the TGI in the experiment on PC-3 prostate was found to be 3.35 µM; with NCI/ADR-RES ovarian it was 9.77 µM; in the experiment on IGROV1 ovarian, 3.11 µM; in the experiment with U251 CNS, 3.31 µM; with UO-31 renal, 2.59 µM; with MOLT-4 leukemia, 5.27 µM. Besides, the TGI amounted to 3.07 µM in the experiment with UACC-62 melanoma and 3.26 µM with OVCAR-8 ovarian.

Take `S=C=NCCc1ccccc1`: the TGI worked out at 1.37 µM in the experiment on IGROV1 ovarian; 2.22 µM in the experiment with U251 CNS; 3.94 µM in the experiment with UO-31 renal; 2.52 µM in the experiment with UACC-62 melanoma; 2.65 µM in the experiment with HL-60(TB) leukemia; 5.57 µM with OVCAR-8 ovarian.

Turning to `O=c1[nH]c(=O)n(C2OC(CO)C(O)C2O)cc1OCC(F)(F)F` (stereo unspecified), the TGI in the experiment on IGROV1 ovarian, in the experiment with U251 CNS, in the experiment on UO-31 renal, with MOLT-4 leukemia, with UACC-62 melanoma and in the experiment on HL-60(TB) leukemia was greater than 100 µM each time. In the experiment with OVCAR-8 ovarian, this compound returned a TGI greater than 100 µM.

On to `C=CCOC(=O)C1CCC(=O)N1C(=O)C(Cl)Cl` (stereo unspecified), for which the TGI in the experiment on IGROV1 ovarian, with U251 CNS, in the experiment on UO-31 renal, in the experiment with MOLT-4 leukemia, in the experiment on UACC-62 melanoma and in the experiment on HL-60(TB) leukemia was greater than 100 µM in each case. For the same compound, in the experiment with OVCAR-8 ovarian, the TGI was greater than 100 µM.

With `c1ccc(P(=C2c3ccccc3-c3ccccc32)(c2ccccc2)c2ccccc2)cc1`, the TGI in the experiment on IGROV1 ovarian is greater than 100 µM; with U251 CNS, 9.18 µM; in the experiment on UO-31 renal it was 70.7 µM; in the experiment on UACC-62 melanoma, 14.1 µM; with HL-60(TB) leukemia it was 4.36 µM; in the experiment with OVCAR-8 ovarian, 12.7 µM.
